Measured values reported in PubChem BioAssay (NCI).
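Where inhibition never reached the appropriate level, the endpoint shown equals the highest concentration tested. Otherwise, values were interpolated linearly from a five-concentration, 48-hour dose response in 96-well plates. Abbreviation: GI50, concentration required for 50% inhibition of growth. TGI denotes the concentration required for complete inhibition of growth.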

How the values were obtained:
Test in all cases: growth of human tumour cells (NCI), 48 h
HCT-15 colon = test system: HCT-15 colon
ACHN renal = test system: ACHN renal
HCC-2998 colon = test system: HCC-2998 colon
MALME-3M melanoma = test system: MALME-3M melanoma
786-0 renal = test system: 786-0 renal
MOLT-4 leukemia = test system: MOLT-4 leukemia
HOP-92 NSCLC = test system: HOP-92 NSCLC
U251 CNS = test system: U251 CNS
MCF7 breast = test system: MCF7 breast
BT-549 breast = test system: BT-549 breast

## CN(C)CCC[N+]1=Nc2cccc3cccc(c23)N1
HCT-15 colon
  TGI: > 100 µM
ACHN renal
  TGI: > 100 µM
HCC-2998 colon
  TGI: > 100 µM
MALME-3M melanoma
  TGI: > 100 µM
786-0 renal
  TGI: > 100 µM
MOLT-4 leukemia
  TGI: 62.4 µM
HOP-92 NSCLC
  TGI: > 100 µM
U251 CNS
  TGI: > 100 µM

## N#CC(/C(CCCC(=O)Nc1cccc([N+](=O)[O-])c1)=N\NC(=O)c1c(O)ccc2ccccc12)c1nc2ccccc2s1 (stereo not given)
ACHN renal
  TGI: > 100 µM
MALME-3M melanoma
  TGI: > 100 µM
786-0 renal
  TGI: > 100 µM
MOLT-4 leukemia
  TGI: > 100 µM
HOP-92 NSCLC
  TGI: > 100 µM
U251 CNS
  TGI: > 100 µM

## CCOC(=O)C1C(=O)CC(=O)C2CCCCC21 (stereo not given)
HCT-15 colon
  TGI: > 100 µM
ACHN renal
  TGI: > 100 µM
MALME-3M melanoma
  TGI: > 100 µM
786-0 renal
  TGI: > 100 µM
MOLT-4 leukemia
  TGI: > 100 µM
HOP-92 NSCLC
  TGI: > 100 µM
U251 CNS
  TGI: > 100 µM

## CN(C)N=Nc1ccc(S(N)(=O)=O)cc1
HCT-15 colon
  TGI: > 100 µM
ACHN renal
  TGI: > 100 µM
HCC-2998 colon
  TGI: > 100 µM
MALME-3M melanoma
  TGI: > 100 µM
786-0 renal
  TGI: > 100 µM
MOLT-4 leukemia
  TGI: > 100 µM
HOP-92 NSCLC
  TGI: > 100 µM
U251 CNS
  TGI: > 100 µM

## COc1ccc(-c2c(-c3ccc(C#N)c(F)c3)nc(N3CCC(N)CC3)n(C)c2=O)cc1F
HCT-15 colon
  GI50: 21.6 µM
  TGI: 99.2 µM
ACHN renal
  GI50: 15.8 µM
  TGI: 41.5 µM
HCC-2998 colon
  GI50: 13 µM
  TGI: 26.7 µM
MALME-3M melanoma
  GI50: 13.4 µM
  TGI: 27.5 µM
786-0 renal
  GI50: 11.7 µM
  TGI: 24.7 µM
MCF7 breast
  GI50: 14.4 µM
  TGI: 34 µM
MOLT-4 leukemia
  GI50: 15.5 µM
  TGI: 46.2 µM
BT-549 breast
  GI50: 14.6 µM
  TGI: 30.6 µM
U251 CNS
  GI50: 14.6 µM
  TGI: 32.8 µM

## Oc1[nH]c2ccccc2c1C=Nc1ccc(-n2cncn2)cc1
HCT-15 colon
  GI50: 18.8 µM
  TGI: > 25 µM
ACHN renal
  GI50: 18.3 µM
  TGI: > 25 µM
HCC-2998 colon
  GI50: > 25 µM
  TGI: > 25 µM
MALME-3M melanoma
  GI50: > 16 µM
  TGI: > 25 µM
786-0 renal
  GI50: > 25 µM
  TGI: > 25 µM
MCF7 breast
  GI50: > 25 µM
  TGI: > 25 µM
MOLT-4 leukemia
  GI50: 20.4 µM
  TGI: > 25 µM
BT-549 breast
  GI50: > 18.9 µM
  TGI: > 25 µM
U251 CNS
  GI50: > 21.6 µM
  TGI: > 25 µM

## CC12CCc3ccccc3C1=NNC(=O)C2 (stereo not given)
HCT-15 colon
  TGI: > 100 µM
ACHN renal
  TGI: > 100 µM
HCC-2998 colon
  TGI: > 100 µM
MALME-3M melanoma
  TGI: > 100 µM
786-0 renal
  TGI: > 100 µM
MOLT-4 leukemia
  TGI: > 100 µM
HOP-92 NSCLC
  TGI: > 100 µM
U251 CNS
  TGI: > 100 µM

## S=C(SSC(=S)N1CCCCC1)N1CCCCC1
HCT-15 colon
  GI50: 16.5 µM
  TGI: 66.8 µM
ACHN renal
  GI50: 15.5 µM
  TGI: 41 µM
HCC-2998 colon
  GI50: 28.9 µM
  TGI: > 100 µM
MALME-3M melanoma
  GI50: 16.4 µM
  TGI: 50.4 µM
786-0 renal
  GI50: 14.5 µM
  TGI: 28.9 µM
MOLT-4 leukemia
  GI50: 17.2 µM
  TGI: 49.5 µM
BT-549 breast
  GI50: 16.6 µM
  TGI: 44.6 µM
HOP-92 NSCLC
  GI50: 30.7 µM
  TGI: > 100 µM
U251 CNS
  GI50: 12.2 µM
  TGI: 45.2 µM

## CCCCCCCCN=C(NCCCCCCCC)SCc1cccc2ccccc12
HCT-15 colon
  GI50: 1.19 µM
  TGI: 3.09 µM
HCC-2998 colon
  GI50: 1.62 µM
  TGI: 3.05 µM
MALME-3M melanoma
  GI50: 1.46 µM
  TGI: 3.68 µM
786-0 renal
  GI50: 1.24 µM
  TGI: 2.7 µM
MCF7 breast
  GI50: 1.34 µM
  TGI: 2.8 µM
MOLT-4 leukemia
  GI50: 1.83 µM
  TGI: 4.19 µM
HOP-92 NSCLC
  GI50: 1.03 µM
  TGI: 2.28 µM
U251 CNS
  GI50: 1.59 µM
  TGI: 2.98 µM

## CC(=O)CC(=O)Nc1ccccc1C(F)(F)F
HCT-15 colon
  TGI: > 100 µM
ACHN renal
  TGI: > 100 µM
HCC-2998 colon
  TGI: > 100 µM
MALME-3M melanoma
  TGI: > 100 µM
786-0 renal
  TGI: > 100 µM
MOLT-4 leukemia
  TGI: > 100 µM
HOP-92 NSCLC
  TGI: > 100 µM
U251 CNS
  TGI: > 100 µM

## CC(=O)Nc1ccc(/C=c2\sc3nnc(-c4cccnc4)n3c2=O)cc1
HCT-15 colon
  TGI: 35.9 µM
ACHN renal
  TGI: 26.9 µM
HCC-2998 colon
  TGI: 35.8 µM
MALME-3M melanoma
  TGI: 37.3 µM
786-0 renal
  TGI: 31.4 µM
MOLT-4 leukemia
  TGI: 64.3 µM
HOP-92 NSCLC
  TGI: 44.2 µM
U251 CNS
  TGI: 33.5 µM

## CN1CCN(c2nc(N)c(Br)c(Cl)n2)CC1
HCT-15 colon
  TGI: > 100 µM
ACHN renal
  TGI: > 100 µM
HCC-2998 colon
  TGI: > 100 µM
MALME-3M melanoma
  TGI: > 100 µM
786-0 renal
  TGI: > 100 µM
MOLT-4 leukemia
  TGI: > 100 µM
HOP-92 NSCLC
  TGI: > 100 µM

## O=C(CCc1ccccc1)CC1OC(=O)C(Cl)=C1Cl (stereo not given)
HCT-15 colon
  TGI: 30.3 µM
ACHN renal
  TGI: 38.6 µM
HCC-2998 colon
  TGI: 32.6 µM
MALME-3M melanoma
  TGI: 33.1 µM
786-0 renal
  TGI: 37.5 µM
MOLT-4 leukemia
  TGI: > 100 µM
HOP-92 NSCLC
  TGI: 41.1 µM
U251 CNS
  TGI: 30.4 µM

## Cc1[nH]c2cc([N+](=O)[O-])ccc2c1[N+](=O)[O-]
ACHN renal
  TGI: 50.3 µM
HCC-2998 colon
  TGI: 52.7 µM
MALME-3M melanoma
  TGI: 54.4 µM
786-0 renal
  TGI: > 100 µM
MOLT-4 leukemia
  TGI: 71.4 µM
HOP-92 NSCLC
  TGI: 23.8 µM
U251 CNS
  TGI: 71.2 µM

## CCN(CC)c1ccc(C2N3CCCCC3[C@@H]3c4[nH]c5ccccc5c4CCN23)cc1 (stereo not given in full)
HCT-15 colon
  TGI: > 100 µM
ACHN renal
  TGI: 74.7 µM
MALME-3M melanoma
  TGI: 47.4 µM
786-0 renal
  TGI: > 100 µM
MOLT-4 leukemia
  TGI: > 100 µM
HOP-92 NSCLC
  TGI: > 100 µM
U251 CNS
  TGI: > 100 µM

## CC(=O)[CH-]C(=O)c1ccccc1.CC(=O)[CH-]C(=O)c1ccccc1.CC(=O)[CH-]C(=O)c1ccccc1.[Ga+3]
HCT-15 colon
  GI50: 18.2 µM
  TGI: > 100 µM
ACHN renal
  GI50: 30.3 µM
  TGI: > 100 µM
HCC-2998 colon
  GI50: 13.9 µM
  TGI: 29.9 µM
MALME-3M melanoma
  GI50: 2.61 µM
  TGI: 19.5 µM
786-0 renal
  GI50: 18.2 µM
  TGI: 37.1 µM
MOLT-4 leukemia
  GI50: 9.64 µM
  TGI: 30.4 µM
HOP-92 NSCLC
  GI50: 29.8 µM
  TGI: 51.9 µM
U251 CNS
  GI50: 12.7 µM
  TGI: 25.8 µM

## CC(=O)C1C(=O)C(=O)N(CCN2C(=O)C(=O)C(C(C)=O)C2=O)C1=O (stereo not given)
HCT-15 colon
  TGI: > 100 µM
ACHN renal
  TGI: > 100 µM
HCC-2998 colon
  TGI: > 100 µM
MALME-3M melanoma
  TGI: > 100 µM
786-0 renal
  TGI: > 100 µM
HOP-92 NSCLC
  TGI: > 100 µM
U251 CNS
  TGI: > 100 µM

## CCN(CC)C(=S)SS(C)(=O)=O
HCT-15 colon
  TGI: 26.2 µM
ACHN renal
  TGI: 31.8 µM
MALME-3M melanoma
  TGI: 58.4 µM
786-0 renal
  TGI: 33.3 µM
MOLT-4 leukemia
  TGI: 42.8 µM
HOP-92 NSCLC
  TGI: 54.2 µM
U251 CNS
  TGI: 31.5 µM

## CC(=O)OCC1OC(n2c(=S)n(-c3ccccc3)c(=O)c3cc(Br)ccc32)C(OC(C)=O)C1OC(C)=O (stereo not given)
HCT-15 colon
  TGI: > 100 µM
ACHN renal
  TGI: > 100 µM
HCC-2998 colon
  TGI: > 100 µM
MALME-3M melanoma
  TGI: > 100 µM
786-0 renal
  TGI: > 100 µM
MOLT-4 leukemia
  TGI: > 100 µM
HOP-92 NSCLC
  TGI: > 100 µM
U251 CNS
  TGI: > 100 µM

## Cc1cc(Br)ccc1N=Nc1c(C)nn(-c2ccccc2)c1-c1ccccc1
HCT-15 colon
  TGI: > 100 µM
ACHN renal
  TGI: > 100 µM
MALME-3M melanoma
  TGI: > 100 µM
786-0 renal
  TGI: > 100 µM
MOLT-4 leukemia
  TGI: > 100 µM
HOP-92 NSCLC
  TGI: > 100 µM
U251 CNS
  TGI: > 100 µM

## Cc1ccc(S(=O)(=O)NNS(C)(=O)=O)cc1
HCT-15 colon
  TGI: > 100 µM
ACHN renal
  TGI: > 100 µM
HCC-2998 colon
  TGI: > 100 µM
MALME-3M melanoma
  TGI: > 100 µM
786-0 renal
  TGI: > 100 µM
MOLT-4 leukemia
  TGI: > 100 µM
U251 CNS
  TGI: > 100 µM

## O=C1/C(=C/c2ccc(C(F)(F)F)cc2)COc2ccc(O)c(O)c21
HCT-15 colon
  GI50: 0.444 µM
  TGI: 1.93 µM
ACHN renal
  GI50: 1.11 µM
  TGI: 2.31 µM
HCC-2998 colon
  GI50: 1.7 µM
  TGI: 3.16 µM
MALME-3M melanoma
  GI50: 1.55 µM
  TGI: 3.3 µM
786-0 renal
  GI50: 1.32 µM
  TGI: 2.85 µM
BT-549 breast
  GI50: 1.86 µM
  TGI: 3.58 µM
HOP-92 NSCLC
  GI50: 1.97 µM
  TGI: 6.67 µM
U251 CNS
  GI50: 0.703 µM
  TGI: 2.05 µM
